Test results reported in US12729404B2, “Method and kit for testing drug hypersensitivity reactions caused by sulfonamide derivative-based antiepileptic drug and use of the kit” (CHANG GUNG MEMORIAL HOSPITAL, LINKOU, priority 2020, dated 2026).

How the values were obtained:
Conditions in all cases: in vivo
HLA-B*51:01 or B*51:02 = test system: HLA-B*51:01 or B*51:02
HLA-B*13:01 [1] = target: T1, HLA-B*13:01 (Homo sapiens, UniProt P01889, A65T/A93T/A95T/D138N/D201E/D98Y/E176V/E204Q/E69M/E70A/G107R/K202T/L105A/L119I/N104T/N87E/Q94N/R106L/R155S/R169L/R180L/S101N/S121R/S35A/S48T/T118I/V127L/V36M/Y140L/Y91S)
HLA-B*13:01 [2] = target: T1, HLA-B*13:01; remark: listed apart in the source

NS(=O)(=O)Cc1noc2ccccc12 [zonisamide]
Cases N (allele carriers / patients) (HLA-B*51:01 or B*51:02): 4/7
OR (HLA-B*51:01 or B*51:02): 8.3
Cases N (allele carriers / patients) (HLA-B*13:01 [1]): 5/7
OR (HLA-B*13:01 [1]): 19.3
DHR (%) carrying the allele (HLA-B*13:01 [2]): 100%
DHR N (allele carriers / patients) (HLA-B*13:01 [2]): 3/3
Sensitivity (HLA-B*13:01 [2]): 100.00%
Specificity (HLA-B*13:01 [2]): 88.52%
